Activity calls are given as the source filed them.
Tests used:
[1] = C. albicans growth with fluconazole, confirmation, fluorescence, retest (AID 2467); assay type: functional, cell-based
[2] = biological target: Insulin-like growth factor 1 receptor (Homo sapiens, UniProt P08069); assay: Navigating the Kinome. Panel member name: IGF1R; assay type: functional
[3] = biological target: Dual specificity mitogen-activated protein kinase kinase 2 (Homo sapiens, UniProt P36507); assay: Navigating the Kinome. Panel member name: MAP2K2; assay type: functional
[4] = biological target: Hepatocyte growth factor receptor (Homo sapiens, UniProt P08581); assay type: functional;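 note: kinase panel profiling across the kinome, with MET as the panel member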
[5] = biological target: T1, Serine/threonine-protein kinase Nek2 (Homo sapiens, UniProt P51955); assay type: functional
T1 sequence (P51955 whole entry): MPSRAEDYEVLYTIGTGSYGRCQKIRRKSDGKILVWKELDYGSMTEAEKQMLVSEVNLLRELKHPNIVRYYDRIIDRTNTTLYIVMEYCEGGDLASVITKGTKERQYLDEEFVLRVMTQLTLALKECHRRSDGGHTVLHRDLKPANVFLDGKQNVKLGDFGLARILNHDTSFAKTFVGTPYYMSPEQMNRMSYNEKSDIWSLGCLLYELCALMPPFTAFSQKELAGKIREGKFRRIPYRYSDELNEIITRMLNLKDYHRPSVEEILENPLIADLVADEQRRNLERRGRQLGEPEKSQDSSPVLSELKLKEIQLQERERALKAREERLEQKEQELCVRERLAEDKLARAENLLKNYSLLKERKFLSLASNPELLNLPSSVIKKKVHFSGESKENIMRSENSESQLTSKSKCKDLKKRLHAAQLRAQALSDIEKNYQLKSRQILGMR

[6] = biological target: Leukocyte tyrosine kinase receptor (Homo sapiens, UniProt P29376); assay: Navigating the Kinome. Panel member name: LTK; assay type: functional
[7] = biological target: Dual specificity tyrosine-phosphorylation-regulated kinase 1B (Homo sapiens, UniProt Q9Y463); assay: Navigating the Kinome. Panel member name: DYRK1B; assay type: functional
[8] = biological target: Ribosomal protein S6 kinase alpha-3 (Homo sapiens, UniProt P51812); assay type: functional;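 note: measured within a kinome-wide profiling panel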
[9] = biological target: Tyrosine-protein kinase JAK3 (Homo sapiens, UniProt P52333); assay type: functional
[10] = biological target: Mitogen-activated protein kinase 9 (Homo sapiens, UniProt P45984); assay type: functional;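 note: value from a kinome panel profiling assay, MAPK9 panel entry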
[11] = biological target: Activated CDC42 kinase 1 (Homo sapiens, UniProt Q07912); assay: Navigating the Kinome. Panel member name: ACK1; assay type: functional
[12] = biological target: Fibroblast growth factor receptor 1 (Homo sapiens, UniProt P11362); assay type: functional
[13] = biological target: Serine/threonine-protein kinase PAK 4 (Homo sapiens, UniProt O96013); assay type: functional;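 note: value obtained within a kinome profiling panel in which PAK4 was one of the panel members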
[14] = biological target: Platelet-derived growth factor receptor alpha (Homo sapiens, UniProt P16234); assay: Navigating the Kinome. Panel member name: PDGFRA; assay type: functional
[15] = biological target: Tyrosine-protein kinase BTK (Homo sapiens, UniProt Q06187); assay type: functional
[16] = biological target: T2, Tyrosine-protein kinase receptor TYRO3 (Homo sapiens, UniProt Q06418); assay type: functional;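 note: TYRO3 value obtained as one member of a kinome-wide profiling panel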
T2 sequence (Q06418 whole entry): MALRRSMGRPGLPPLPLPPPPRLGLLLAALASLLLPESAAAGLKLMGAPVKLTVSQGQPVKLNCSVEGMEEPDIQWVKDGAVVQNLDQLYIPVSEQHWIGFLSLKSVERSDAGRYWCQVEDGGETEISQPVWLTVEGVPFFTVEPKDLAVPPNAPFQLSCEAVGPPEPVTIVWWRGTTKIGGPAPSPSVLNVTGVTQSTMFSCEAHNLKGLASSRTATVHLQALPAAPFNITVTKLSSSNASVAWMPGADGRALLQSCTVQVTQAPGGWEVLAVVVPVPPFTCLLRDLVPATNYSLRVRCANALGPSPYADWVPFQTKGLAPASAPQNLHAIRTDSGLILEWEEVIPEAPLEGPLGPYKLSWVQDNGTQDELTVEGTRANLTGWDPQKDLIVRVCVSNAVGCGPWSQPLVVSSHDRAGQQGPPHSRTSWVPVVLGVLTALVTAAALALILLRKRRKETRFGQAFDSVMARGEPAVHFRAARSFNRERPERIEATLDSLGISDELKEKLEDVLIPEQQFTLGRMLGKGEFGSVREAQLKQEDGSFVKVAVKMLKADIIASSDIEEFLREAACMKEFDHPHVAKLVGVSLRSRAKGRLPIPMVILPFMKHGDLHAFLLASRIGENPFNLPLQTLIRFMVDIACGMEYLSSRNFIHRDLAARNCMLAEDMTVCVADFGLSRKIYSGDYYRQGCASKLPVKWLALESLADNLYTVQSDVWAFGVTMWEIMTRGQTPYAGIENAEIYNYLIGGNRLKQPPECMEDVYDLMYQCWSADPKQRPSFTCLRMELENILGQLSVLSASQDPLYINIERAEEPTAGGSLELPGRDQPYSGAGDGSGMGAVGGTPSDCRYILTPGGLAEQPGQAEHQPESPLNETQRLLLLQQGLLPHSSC

[17] = biological target: Death-associated protein kinase 3 (Homo sapiens, UniProt O43293); assay type: functional;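 note: measured as one member of a kinome-wide profiling panel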
[18] = biological target: Inhibitor of nuclear factor kappa-B kinase subunit epsilon (Homo sapiens, UniProt Q14164); assay: Navigating the Kinome. Panel member name: IKBKE; assay type: functional
[19] = biological target: Rho-associated protein kinase 1 (Homo sapiens, UniProt Q13464); assay type: functional;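 note: measured within a broad kinome-wide panel profiling many kinases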
[20] = biological target: Tyrosine-protein kinase ABL1 (Homo sapiens, UniProt P00519); assay type: functional
[21] = biological target: Mitogen-activated protein kinase 8 (Homo sapiens, UniProt P45983); assay type: functional;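 note: value comes from one member of a kinome-wide kinase profiling panel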
[22] = biological target: cAMP-dependent protein kinase catalytic subunit alpha (Homo sapiens, UniProt P17612); assay type: functional
[23] = biological target: Aurora kinase B (Homo sapiens, UniProt Q96GD4); assay type: functional
[24] = biological target: Intestinal-type alkaline phosphatase (Homo sapiens, UniProt P09923); assay: inhibition of human intestinal alkaline phosphatase – biochemical, dose response (AID 488876); assay type: functional

Sequence of Leukocyte tyrosine kinase receptor (P29376 whole entry): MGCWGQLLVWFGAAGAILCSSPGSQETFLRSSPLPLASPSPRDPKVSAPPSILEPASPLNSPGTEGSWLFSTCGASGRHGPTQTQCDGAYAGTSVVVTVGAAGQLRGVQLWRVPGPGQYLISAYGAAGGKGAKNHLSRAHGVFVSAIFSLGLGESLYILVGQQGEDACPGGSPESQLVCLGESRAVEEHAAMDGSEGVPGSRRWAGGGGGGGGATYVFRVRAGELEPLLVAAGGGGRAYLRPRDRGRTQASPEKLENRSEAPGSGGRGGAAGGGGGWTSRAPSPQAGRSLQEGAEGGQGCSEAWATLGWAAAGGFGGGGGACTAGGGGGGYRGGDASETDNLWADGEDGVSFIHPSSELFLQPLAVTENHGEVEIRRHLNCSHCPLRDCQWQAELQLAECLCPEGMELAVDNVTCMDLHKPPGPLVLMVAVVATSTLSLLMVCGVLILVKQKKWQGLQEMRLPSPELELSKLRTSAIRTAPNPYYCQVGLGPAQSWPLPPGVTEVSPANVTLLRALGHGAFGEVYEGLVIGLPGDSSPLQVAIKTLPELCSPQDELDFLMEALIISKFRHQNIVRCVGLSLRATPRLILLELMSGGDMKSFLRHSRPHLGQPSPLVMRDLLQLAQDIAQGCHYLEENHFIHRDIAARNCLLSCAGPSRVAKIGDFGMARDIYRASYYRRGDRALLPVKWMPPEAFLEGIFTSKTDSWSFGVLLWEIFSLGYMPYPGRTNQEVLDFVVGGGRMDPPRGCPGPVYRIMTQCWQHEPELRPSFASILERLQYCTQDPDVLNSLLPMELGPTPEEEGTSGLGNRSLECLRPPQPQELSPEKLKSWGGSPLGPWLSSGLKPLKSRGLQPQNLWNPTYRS
Sequence of Inhibitor of nuclear factor kappa-B kinase subunit epsilon (Q14164 whole entry): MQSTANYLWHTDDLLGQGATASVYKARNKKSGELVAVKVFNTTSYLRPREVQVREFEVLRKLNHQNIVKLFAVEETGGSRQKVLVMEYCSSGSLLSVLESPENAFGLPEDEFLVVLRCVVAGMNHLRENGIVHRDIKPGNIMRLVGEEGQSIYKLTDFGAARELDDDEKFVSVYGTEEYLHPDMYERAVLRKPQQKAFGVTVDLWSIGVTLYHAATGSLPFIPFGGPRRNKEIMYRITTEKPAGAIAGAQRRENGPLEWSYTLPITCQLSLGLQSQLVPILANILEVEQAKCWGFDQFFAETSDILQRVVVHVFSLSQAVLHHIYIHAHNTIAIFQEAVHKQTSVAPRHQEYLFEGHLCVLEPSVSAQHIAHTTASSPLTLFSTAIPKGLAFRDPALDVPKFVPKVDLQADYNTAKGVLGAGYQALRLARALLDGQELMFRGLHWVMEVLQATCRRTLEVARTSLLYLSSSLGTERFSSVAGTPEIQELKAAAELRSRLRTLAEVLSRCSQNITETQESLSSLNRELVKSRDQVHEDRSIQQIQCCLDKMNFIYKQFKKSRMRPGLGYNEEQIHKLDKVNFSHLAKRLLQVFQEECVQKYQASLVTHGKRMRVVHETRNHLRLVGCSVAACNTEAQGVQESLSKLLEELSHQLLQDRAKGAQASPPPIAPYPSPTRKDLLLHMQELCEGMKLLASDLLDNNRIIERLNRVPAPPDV
Sequence of Insulin-like growth factor 1 receptor (P08069 31-736 limits assumed): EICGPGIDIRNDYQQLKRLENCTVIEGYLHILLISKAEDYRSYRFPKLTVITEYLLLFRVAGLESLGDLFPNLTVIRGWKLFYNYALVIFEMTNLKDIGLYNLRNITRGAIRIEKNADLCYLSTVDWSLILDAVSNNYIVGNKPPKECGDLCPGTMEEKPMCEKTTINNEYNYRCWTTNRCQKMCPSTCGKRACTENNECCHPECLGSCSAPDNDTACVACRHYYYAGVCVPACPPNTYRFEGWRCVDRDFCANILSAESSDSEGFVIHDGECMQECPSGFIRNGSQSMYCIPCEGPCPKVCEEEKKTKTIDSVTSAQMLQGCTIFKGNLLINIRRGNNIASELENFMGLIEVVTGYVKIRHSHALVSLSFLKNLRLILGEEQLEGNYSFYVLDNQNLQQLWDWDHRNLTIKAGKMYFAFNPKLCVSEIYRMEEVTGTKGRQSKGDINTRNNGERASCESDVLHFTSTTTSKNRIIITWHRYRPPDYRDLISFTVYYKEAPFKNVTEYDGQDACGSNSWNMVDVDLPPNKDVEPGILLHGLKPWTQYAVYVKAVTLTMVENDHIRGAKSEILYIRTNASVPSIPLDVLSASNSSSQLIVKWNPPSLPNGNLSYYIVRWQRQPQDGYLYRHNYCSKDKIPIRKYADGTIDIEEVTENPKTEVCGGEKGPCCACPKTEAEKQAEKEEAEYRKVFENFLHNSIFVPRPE
Sequence of Insulin-like growth factor 1 receptor (P08069 741-1367 limits assumed): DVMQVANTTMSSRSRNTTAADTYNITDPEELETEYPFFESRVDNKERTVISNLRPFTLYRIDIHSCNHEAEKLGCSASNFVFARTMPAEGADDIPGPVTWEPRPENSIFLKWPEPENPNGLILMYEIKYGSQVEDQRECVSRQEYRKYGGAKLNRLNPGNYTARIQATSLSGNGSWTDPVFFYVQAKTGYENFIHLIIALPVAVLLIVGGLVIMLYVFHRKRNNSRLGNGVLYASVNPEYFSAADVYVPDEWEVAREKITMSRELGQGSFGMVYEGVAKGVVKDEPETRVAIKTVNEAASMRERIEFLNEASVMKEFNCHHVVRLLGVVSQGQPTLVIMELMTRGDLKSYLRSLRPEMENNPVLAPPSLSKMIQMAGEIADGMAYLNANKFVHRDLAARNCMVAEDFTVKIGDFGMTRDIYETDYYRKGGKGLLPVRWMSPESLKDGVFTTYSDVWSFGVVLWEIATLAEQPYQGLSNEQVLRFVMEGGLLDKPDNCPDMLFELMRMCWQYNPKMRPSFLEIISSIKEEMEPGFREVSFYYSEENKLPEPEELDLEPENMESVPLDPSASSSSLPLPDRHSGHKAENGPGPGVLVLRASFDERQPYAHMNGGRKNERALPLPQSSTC
Sequence of Mitogen-activated protein kinase 8 (P45983 whole entry): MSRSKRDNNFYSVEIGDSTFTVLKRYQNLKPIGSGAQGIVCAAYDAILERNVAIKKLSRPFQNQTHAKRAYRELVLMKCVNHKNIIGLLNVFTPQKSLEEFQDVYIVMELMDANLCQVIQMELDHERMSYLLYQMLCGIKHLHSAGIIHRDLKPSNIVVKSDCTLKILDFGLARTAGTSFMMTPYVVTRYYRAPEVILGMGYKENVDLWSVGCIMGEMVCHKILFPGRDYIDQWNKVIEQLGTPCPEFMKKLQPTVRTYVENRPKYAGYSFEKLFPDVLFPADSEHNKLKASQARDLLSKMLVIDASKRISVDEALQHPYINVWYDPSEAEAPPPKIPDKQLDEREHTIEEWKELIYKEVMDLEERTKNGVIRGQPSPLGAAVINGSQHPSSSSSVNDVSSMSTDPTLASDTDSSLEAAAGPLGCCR
Sequence of Tyrosine-protein kinase BTK (Q06187 whole entry): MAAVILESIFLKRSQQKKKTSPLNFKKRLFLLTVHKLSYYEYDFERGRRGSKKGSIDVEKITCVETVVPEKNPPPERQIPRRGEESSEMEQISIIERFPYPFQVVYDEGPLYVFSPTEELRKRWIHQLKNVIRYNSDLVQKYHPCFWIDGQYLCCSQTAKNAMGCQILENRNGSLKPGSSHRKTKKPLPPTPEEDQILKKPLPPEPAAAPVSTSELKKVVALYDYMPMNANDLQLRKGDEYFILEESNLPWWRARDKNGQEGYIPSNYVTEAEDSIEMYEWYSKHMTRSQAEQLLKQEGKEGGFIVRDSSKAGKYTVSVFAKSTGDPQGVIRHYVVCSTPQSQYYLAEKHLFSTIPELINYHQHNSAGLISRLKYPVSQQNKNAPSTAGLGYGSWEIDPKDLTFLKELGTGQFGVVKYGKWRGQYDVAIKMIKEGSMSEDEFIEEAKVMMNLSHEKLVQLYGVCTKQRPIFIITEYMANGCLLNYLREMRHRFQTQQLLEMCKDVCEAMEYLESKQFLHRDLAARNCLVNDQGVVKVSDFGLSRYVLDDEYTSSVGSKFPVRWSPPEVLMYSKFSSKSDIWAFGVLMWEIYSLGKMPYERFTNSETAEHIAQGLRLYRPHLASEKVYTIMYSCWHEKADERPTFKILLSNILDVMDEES
Sequence of Death-associated protein kinase 3 (O43293 whole entry): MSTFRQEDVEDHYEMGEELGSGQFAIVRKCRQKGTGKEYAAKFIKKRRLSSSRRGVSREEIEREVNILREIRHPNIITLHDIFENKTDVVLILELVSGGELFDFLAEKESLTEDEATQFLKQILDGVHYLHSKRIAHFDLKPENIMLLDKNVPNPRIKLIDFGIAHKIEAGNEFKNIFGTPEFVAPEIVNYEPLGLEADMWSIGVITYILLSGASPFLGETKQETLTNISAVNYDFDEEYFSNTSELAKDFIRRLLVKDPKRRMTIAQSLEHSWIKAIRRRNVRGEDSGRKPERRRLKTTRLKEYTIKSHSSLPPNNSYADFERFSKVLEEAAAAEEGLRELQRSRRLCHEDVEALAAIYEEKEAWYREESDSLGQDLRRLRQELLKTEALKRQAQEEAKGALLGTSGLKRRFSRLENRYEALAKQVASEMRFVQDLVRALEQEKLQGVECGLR
Sequence of Dual specificity mitogen-activated protein kinase kinase 2 (P36507 whole entry): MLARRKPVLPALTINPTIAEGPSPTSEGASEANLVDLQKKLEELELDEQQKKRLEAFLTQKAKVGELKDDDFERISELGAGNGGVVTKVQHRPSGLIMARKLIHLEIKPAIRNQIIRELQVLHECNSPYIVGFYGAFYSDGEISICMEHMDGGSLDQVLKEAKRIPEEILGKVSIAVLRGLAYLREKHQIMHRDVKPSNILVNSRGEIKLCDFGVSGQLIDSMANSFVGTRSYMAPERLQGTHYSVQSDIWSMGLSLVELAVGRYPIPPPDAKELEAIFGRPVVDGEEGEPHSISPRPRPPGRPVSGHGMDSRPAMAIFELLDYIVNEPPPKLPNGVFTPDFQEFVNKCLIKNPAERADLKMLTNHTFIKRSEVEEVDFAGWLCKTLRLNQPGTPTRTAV

| Ki [2] | Ki [3] | Ki [4] | Ki [5] | Ki [6] | Ki [7] | Ki [9] | Ki [10] | Ki [11] | Ki [12] | Ki [13] | Ki [14] | Ki [15] | Ki [16] | Ki [18] | Ki [19] | Ki [20] | Ki [21] | SMILES | EC50 [1] | Ki [17] | also measured |
| --- | --- | --- | --- | --- | --- | --- | --- | --- | --- | --- | --- | --- | --- | --- | --- | --- | --- | --- | --- | --- | --- |
| – | – | – | – | – | – | – | – | – | – | – | – | – | – | – | – | – | – | CCCC(=O)NC(c1cccs1)c1cc(Cl)c2cccnc2c1O (stereo unspecified) | 0.707 µM (active) | – | – |
| > 2.51 µM (inactive) | 0.398 µM (active) | 0.316 µM (active) | 1.58 µM (active) | > 2.51 µM (inactive) | > 2.51 µM (inactive) | > 5.01 µM (inactive) | > 3.98 µM (inactive) | > 3.98 µM (inactive) | 0.794 µM (active) | > 5.01 µM (inactive) | > 2.51 µM (inactive) | 5.01 µM (active) | 1.26 µM (active) | > 3.16 µM (inactive) | > 3.98 µM (inactive) | 1.26 µM (active) | 3.16 µM (active) | O=C(Nc1cccc(C2Nc3ccc4ccccc4c3C3C=CCC32)c1)c1ccc(F)cc1 (stereo unspecified) | – | > 5.01 µM (inactive) | Ki [8]: > 3.98 µM (inactive); Ki [22]: 1.26 µM (active); Ki [23]: 1 µM (active) |
| – | – | – | – | – | – | – | – | – | – | – | – | – | – | – | – | – | – | O=C(O)CC(C(=O)O)N1C(=O)/C(=C/C=C/c2ccco2)SC1=S (stereo unspecified) | – | – | IC50 [24]: > 100 µM (inactive) |
| – | – | – | – | – | – | – | – | – | – | – | – | – | – | – | – | – | – | Cc1ccc(C(=O)OCn2ncc(Cl)c(Cl)c2=O)cc1 | > 38 µM (not active) | – | – |
| 0.794 µM (active) | 1.58 µM (active) | > 2.51 µM (inactive) | > 3.16 µM (inactive) | > 2.51 µM (inactive) | 0.794 µM (active) | > 5.01 µM (inactive) | > 3.98 µM (inactive) | 2.51 µM (active) | 1 µM (active) | 2 µM (active) | > 2.51 µM (inactive) | > 6.31 µM (inactive) | 0.794 µM (active) | > 3.16 µM (inactive) | 1 µM (active) | > 2.51 µM (inactive) | 0.794 µM (active) | Cc1ccc(-c2cc(-c3cc(Br)ccc3O)[nH]c(=O)c2C#N)s1 | – | > 5.01 µM (inactive) | Ki [22]: 0.251 µM (active); Ki [23]: 0.794 µM (active) |

— ChEMBL document CHEMBL1201862, “PubChem BioAssay data set” (2004)
